Two molecules from patent publication US20170182077A1, “METHODS AND PHARMACEUTICAL COMPOSITIONS FOR THE TREATMENT OF ACUTE EXACERBATIONS OF CHRONIC OBSTRUCTIVE PULMONARY DISEASE” (INSERM (INSTITUT NATIONAL DE LA SANTÉ ET DE LA RECHERCHE …, priority 2014, published 2017) can be followed below.

Assay [1] deals with lung cells (NKT cells) from Air and COPD mice. Description: Cytokine production by total lung cells stimulated with alpha-GalactosylCeramide (ELISA). The assay is classed as cell-based, C57B1/6 mice. As to conditions: αGC 100 ng/ml, 48 hrs; for production of IL-22: after Sp challenge vs non infected, ELISA of supernatants. On the procedure:
FIG. 3—Lung cells from Air and COPD mice were treated with αGC (100 ng/ml) or not (Ctl, non stimulated) for 48 hrs. The concentrations of IL-22, IL-17, IFN-γ and IL-4 were analyzed by ELISA in the supernatants. Values represented the mean±SEM.
C57B1/6 mice were exposed to CS generated from 5 cigarettes per day, 5 days a week, over a period of 12 weeks using a smoking machine (Emka, Scireq, Canada).
Mice were inoculated with a clinical isolate of S. pneumoniae serotype 1 (Sp) (5×10^4 cfu). Bacteria stocks were kept frozen at −80° C. Bacteria were thawn just before infection, and the number of cfu was checked on chocolate plates. Infection was performed by intranasal route (50 μl/mouse).
Cytokine production was analyzed in total lung cells. For this, 5×10^5 lung cells were seeded on 96-well plates and then stimulated with alpha-GalactosylCeramide, or α-GC (100 ng/ml), and coated anti-CD3 Ab. Forty-eight hours later, supernatants were collected and analyzed for IFN-γ, IL-4, IL-17 and IL-22 concentration by ELISA (R&D Systems).

Assay [2] relates to peripheral blood mononuclear cells (PBMC). Nature of the assay: Th17 cytokine secretion by peripheral blood mononuclear cells exposed to S. pneumoniae or PHA. The assay is classed as cell-based, human. As to conditions: PHA 1 μg/ml, supernatants after 24 h. On the procedure: Peripheral blood and induced or spontaneous sputum were collected in stable COPD patients (n=10), in smokers (without COPD, n=13)) and in non smoker healthy controls (n=14) (CPP 2008-A00690-55) in order to evaluate ex vivo the Th17 response to infection with S. pneumoniae. Peripheral blood mononuclear cells (PBMC) were purified on Ficoll Paque gradient and 3×10^6 cells/ml in complete RPMI1640 were exposed to S. pneumoniae (MOI=2) or to a positive control, phytohemagglutinin (1 μg/ml) (PHA, Difco). After 90 min, antibiotics were added to stop bacteria growth and supernatants were collected after 24 h incubation. In parallel, another batch of cells was incubated with brefeldin-A (10 μg/ml, Sigma) for 4 h before collection and was used for intracellular immuno-staining of cytokines in lymphocytes.

Setting [3] is: pulmonary cells from Air and COPD mice, after Sp infection, ELISA.

On to `CCCCCCCCCCCCCCCCCCCCCCCCCC(=O)N[C@@H](CO[C@H]1O[C@H](CO)[C@H](O)[C@H](O)[C@H]1O)[C@H](O)[C@H](O)CCCCCCCCCCCCCC` [alpha-GalactosylCeramide], for which, in assay [1] (pulmonary cells from Air and COPD mice, after Sp challenge, ELISA), the IL-17 production entry is “failed to increase IL-17 production”. Also, in assay [1] (setting [3]), the “levels of IFN-y” value is listed as “higher levels” and the “levels of IL-4” value was “higher levels”. The “production of IL-22” value in assay [1] (pulmonary cells from Air mice) is on record as “higher production of IL-22”. For the same molecule, in assay [1] (pulmonary cells from COPD mice), the “production of IL-22” value is on record as “absent”.
Take phytohemagglutinin [PHA]: in assay [2] (PBMC of COPD patients), the “response (secretion, mainly IL-17 and IL-22)” value was “partially altered”. The “levels of IL-17 and IL-22” value in assay [2] (PBMC of non-smokers and smokers) is given as “significantly increased”.
